# From patent publication US11149066B2, “Thrombospondin 1-binding peptide” (DAIICHI SANKYO COMPANY, LIMITED, priority 2016, dated 2021)
# Positions of bridges follow the written chain, without caps; N, C: chain ends. Non-standard residues stand in square brackets, D forms with d. Residues, ends and D or L forms follow the SMILES beside them. Phe(4-CH2NH2) = NCc1ccc(C[C@H](N)C(=O)O)cc1; 2Nal = N[C@@H](Cc1ccc2ccccc2c1)C(=O)O; Met(O2) = CS(=O)(=O)CC[C@H](N)C(=O)O; hCit = NC(=O)NCCCC[C@H](N)C(=O)O; Tle = CC(C)(C)[C@H](N)C(=O)O; hCys = N[C@@H](CCS)C(=O)O; Nle = CCCC[C@H](N)C(=O)O
# Target: human TSP1 (Homo sapiens, UniProt P07996)
# Experiment: Cell adhesion inhibition assay (HUVEC adhesion to TSP1-coated plate)
# Type: cell-based
# Settings: HUVEC adhesion to TSP1-coated plate; read-out: cell adhesion inhibition (Table 4)
# Procedure: As referred to herein, the TSP1 inhibitory activity refers to the activity to inhibit one or more effects of TSP1, including angiostatic effect. The TSP1 inhibitory activity is measured by a cell adhesion inhibition assay using human TSP1 and vascular endothelial cells as described hereinbelow in the Examples section. In this assay, when the 50% inhibitory concentration (IC5O) of a test substance is 200 nM or less, the test substance is determined to have TSP1 inhibitory activity.
# (Test Example 1) Cell Adhesion Inhibition Assay
# I. Materials and Reagents
# 96 well Non-treated White with clear bottom (Coster, 3632)
# BrightMax adhesive sealing films (EXCEL Scientific, WT50)
# Proteosave®SS 15 mL (Sumitomo Bakelite, MS-52150)
# Thrombospondin human platelet (Calbiochem, 605225)
# EGM-2 MV (Lonza, CC-3202): for HUVEC passaging
# Collagen coated dish (IWAKI, 4020-010): for HUVEC passaging
# Lipidure®-BL802 (NOF Corporation), 5% solution
# Albumin solution (35%) fraction V from Bovine (Sigma, A7979)
# CellTiter-Glo (Promega, G7572)
# Thrombospondin 1 vial (25 μg) was dissolved in TBS (+2 mM CaCl2; the same shall apply hereunder) to make a 200 μg/mL solution, which was diluted with TBS to a concentration of 10 μg/mL in Proteosave® 15 mL tube. The 10 μg/mL solution was dispensed into a 96 well plate at a volume of 50 μL/well (no reservoir was used since the protein easily adsorbs on it), and the plate was left to stand at 4° C. overnight.
# Lipidure® was diluted 10-fold with TBS to make a 0.5% solution. After a buffer was discarded from the plate that had been coated at the step of <Plate coat> as described above, the 0.5% solution was dispensed into all wells to be used at a volume of 100 μL/well, and the plate was left to stand at room temperature for 1 hour.
# A 0.2 μM solution of each sample was prepared using a dilution buffer (DMEM+0.5% BSA). 2 μL of the 0.2 μM solution was diluted with 500 μL, of dilution buffer to prepare a diluted sample. As a vehicle control, DMSO was diluted in the same way as the samples.
# A blocking solution was discarded from the plate that had been treated at the step of <Plate blocking> as described above, and the plate was washed three times with 150 μL/well of TBS. The washing solution used for the third washing was completely sucked out by an aspirator, and the diluted sample was dispensed into the plate at a volume of 50 μL/well. Then, the plate was left to stand at room temperature for 15 to 30 minutes.
# To maintain HUVECs, EGM2-MV and a collagen coated dish were used (the cells were ceased to be used after 10th or 1 lth passage since the cell proliferation rate declined at this stage). The cells were dispersed with 0.05% Trypsin/EDTA, harvested in DMEM/0.5% BSA, and centrifuged at 1000 rpm for 3 minutes. After removal of supernatant, the cells were washed once with a DMEM buffer. The cells were resuspended in a DMEM buffer, counted for cell number, and diluted to 10000 cells/50 μL. The cell suspension was dispensed at a volume of 50 μL/well into the plate into which the sample had been dispensed, mixed gently, and incubated at 37° C. for 2.5 hours.
# After cell adhesion was confirmed, the culture medium was completely removed by an aspirator, and 100 μL/well of DMEM/0.5% BSA was gently dispensed. Then, DMEM/0.5% BSA was completely removed by an aspirator, and 50 μL/well of DMEM/0.5% BSA was dispensed. After a white seal was applied to the bottom of the plate, 50 μL/well of CellTiter-Glo® was dispensed, and the solution was stirred for 2 minutes and left to stand at room temperature for 8 minutes. […] was detected using EnVision Xcite Multilabel Reader (produced by Perkin Elmer).
# On the basis of the measured fluorescence values, the IC50 values (nM) of the different macrocyclic polypeptides for inhibition of cell adhesion were calculated.
# Chain of human TSP1 (P07996 19-1170 limits assumed): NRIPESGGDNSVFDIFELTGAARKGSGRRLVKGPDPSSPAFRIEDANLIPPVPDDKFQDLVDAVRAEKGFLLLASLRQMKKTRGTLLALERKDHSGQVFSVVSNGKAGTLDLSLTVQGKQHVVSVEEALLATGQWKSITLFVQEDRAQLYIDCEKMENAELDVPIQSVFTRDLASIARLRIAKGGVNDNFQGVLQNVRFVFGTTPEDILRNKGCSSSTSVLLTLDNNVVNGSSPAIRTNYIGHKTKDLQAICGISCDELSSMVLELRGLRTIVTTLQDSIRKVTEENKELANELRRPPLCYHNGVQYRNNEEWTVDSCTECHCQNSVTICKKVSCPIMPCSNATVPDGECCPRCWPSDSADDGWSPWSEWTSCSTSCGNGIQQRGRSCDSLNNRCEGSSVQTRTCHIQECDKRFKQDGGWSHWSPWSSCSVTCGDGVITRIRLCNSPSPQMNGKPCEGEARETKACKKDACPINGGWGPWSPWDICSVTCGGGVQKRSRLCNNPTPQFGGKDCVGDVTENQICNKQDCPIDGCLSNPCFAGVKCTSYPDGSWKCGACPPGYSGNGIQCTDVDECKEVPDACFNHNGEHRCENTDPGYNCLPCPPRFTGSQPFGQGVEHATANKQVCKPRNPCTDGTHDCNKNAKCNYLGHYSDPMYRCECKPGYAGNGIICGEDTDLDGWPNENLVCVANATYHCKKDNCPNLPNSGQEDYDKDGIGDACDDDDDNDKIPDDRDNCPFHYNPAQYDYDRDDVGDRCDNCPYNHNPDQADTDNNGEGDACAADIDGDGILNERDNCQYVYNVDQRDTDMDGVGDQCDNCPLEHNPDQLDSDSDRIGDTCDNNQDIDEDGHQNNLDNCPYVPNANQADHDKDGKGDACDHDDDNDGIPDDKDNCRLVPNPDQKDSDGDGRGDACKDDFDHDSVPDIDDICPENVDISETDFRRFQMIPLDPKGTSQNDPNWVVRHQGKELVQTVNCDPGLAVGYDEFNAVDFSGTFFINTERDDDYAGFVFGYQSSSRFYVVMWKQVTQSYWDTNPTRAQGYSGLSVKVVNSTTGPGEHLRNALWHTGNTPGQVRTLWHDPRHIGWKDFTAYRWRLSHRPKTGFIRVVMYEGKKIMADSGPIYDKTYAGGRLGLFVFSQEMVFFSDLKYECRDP
row,IC50,Structure (SMILES)
1,14.2 nM,CCCC[C@@H]1NC(=O)[C@H](Cc2c[nH]c3ccccc23)NC(=O)[C@H](CC(=O)O)NC(=O)[C@H](CCCNC(=N)N)NC(=O)CNC(=O)[C@H](CO)NC(=O)[C@H]([C@@H](C)CC)NC(=O)[C@H](Cc2ccc3ccccc3c2)NC(=O)[C@H](CCC(N)=O)NC(=O)CSC[C@@H](C(N)=O)NC(=O)[C@H](C(C)C)NC(=O)[C@H](Cc2c[nH]c3ccccc23)NC(=O)[C@H](CCCCN)NC1=O [Compound 86] ({CH2CO}-Q[2Nal]ISGRDW[Nle]KWVC-NH2; thioether N-13)
2,17.1 nM,CCCC[C@@H]1NC(=O)[C@H](Cc2c[nH]c3ccccc23)NC(=O)[C@H](CC(=O)O)NC(=O)[C@H](CCCNC(=N)N)NC(=O)CNC(=O)[C@H](CO)NC(=O)[C@H]([C@@H](C)CC)NC(=O)[C@H](Cc2ccc3ccccc3c2)NC(=O)[C@H](Cc2c[nH]cn2)NC(=O)CSC[C@@H](C(N)=O)NC(=O)[C@H](C(C)C)NC(=O)[C@H](Cc2c[nH]c3ccccc23)NC(=O)[C@H](CCCCN)NC1=O [Compound 91] ({CH2CO}-H[2Nal]ISGRDW[Nle]KWVC-NH2; thioether N-13)

# Same assay, conditions: HUVEC adhesion to human platelet thrombospondin-coated plate, 2.5 hours, CellTiter-Glo; read-out: Cell adhesion IC50
row,IC50,Structure (SMILES)
1,33.4 nM,CC[C@H](C)[C@@H]1NC(=O)[C@H](Cc2ccccc2)NC(=O)CSC[C@@H](C(N)=O)NC(=O)[C@H](CCCNC(=N)N)NC(=O)[C@H](Cc2c[nH]c3ccccc23)NC(=O)[C@H](CCCNC(=N)N)NC(=O)[C@H](C(C)C)NC(=O)[C@H](Cc2c[nH]c3ccccc23)NC(=O)[C@H](CC(N)=O)NC(=O)[C@H](CCCNC(=N)N)NC(=O)CNC(=O)[C@H](CO)NC1=O [Compound 5]
2,15.9 nM,CC[C@H](C)[C@@H]1NC(=O)[C@H](Cc2ccc3ccccc3c2)NC(=O)CSC[C@@H](C(N)=O)NC(=O)[C@H](C(C)(C)C)NC(=O)[C@H](Cc2c[nH]c3ccccc23)NC(=O)[C@H](CCCCN)NC(=O)[C@H](C(C)C)NC(=O)[C@H](Cc2c[nH]c3ccccc23)NC(=O)[C@H](CC(N)=O)NC(=O)[C@H](CCCNC(=N)N)NC(=O)CNC(=O)[C@H](CO)NC1=O [Compound 53] ({CH2CO}-[2Nal]ISGRNWVKW[Tle]C-NH2; thioether N-12)
3,19.5 nM,CC[C@H](C)[C@@H]1NC(=O)[C@H](Cc2ccc3ccccc3c2)NC(=O)CSCC[C@@H](C(N)=O)NC(=O)[C@H](C(C)C)NC(=O)[C@H](Cc2c[nH]c3ccccc23)NC(=O)[C@H](CCCCN)NC(=O)[C@H](C(C)C)NC(=O)[C@H](Cc2c[nH]c3ccccc23)NC(=O)[C@H](CC(N)=O)NC(=O)[C@H](CCCNC(=N)N)NC(=O)CNC(=O)[C@H](CO)NC1=O [Compound 54] ({CH2CO}-[2Nal]ISGRNWVKWV[hCys]-NH2; thioether N-12)
4,17.1 nM,CCCC[C@@H]1NC(=O)[C@H](Cc2c[nH]c3ccccc23)NC(=O)[C@H](CC(=O)O)NC(=O)[C@H](CCS(C)(=O)=O)NC(=O)CNC(=O)[C@H](CO)NC(=O)[C@H]([C@@H](C)CC)NC(=O)[C@H](Cc2ccc3ccccc3c2)NC(=O)CSC[C@@H](C(N)=O)NC(=O)[C@H](C(C)C)NC(=O)[C@H](Cc2c[nH]c3ccccc23)NC(=O)[C@H](CCCCN)NC1=O [Compound 71] ({CH2CO}-[2Nal]ISG[Met(O2)]DW[Nle]KWVC-NH2; thioether N-12)
5,27.3 nM,CC[C@H](C)[C@@H]1NC(=O)[C@H](Cc2c[nH]c3ccccc23)NC(=O)CSC[C@@H](C(N)=O)NC(=O)[C@H](C(C)C)NC(=O)[C@H](Cc2c[nH]c3ccccc23)NC(=O)[C@H](CCCCN)NC(=O)[C@H](C(C)C)NC(=O)[C@H](Cc2c[nH]c3ccccc23)NC(=O)[C@H](CC(N)=O)NC(=O)[C@H](CCCNC(=N)N)NC(=O)CNC(=O)[C@H](CO)NC1=O [Compound 9] ({CH2CO}-WISGRNWVKWVC-NH2; thioether N-12)
6,9.2 nM,CCCC[C@@H]1NC(=O)[C@H](Cc2c[nH]c3ccccc23)NC(=O)[C@H](CC(N)=O)NC(=O)[C@H](CCCNC(=N)N)NC(=O)CNC(=O)[C@H](CO)NC(=O)[C@H]([C@@H](C)CC)NC(=O)[C@H](Cc2ccc3ccccc3c2)NC(=O)CSC[C@@H](C(N)=O)NC(=O)[C@H](C(C)C)NC(=O)[C@H](Cc2c[nH]c3ccccc23)NC(=O)[C@H](CCCCN)NC1=O [Compound 38] ({CH2CO}-[2Nal]ISGRNW[Nle]KWVC-NH2; thioether N-12)
7,33.4 nM,CC(C)[C@@H]1NC(=O)[C@H](Cc2c[nH]c3ccccc23)NC(=O)[C@H](CCCNC(=N)N)NC(=O)[C@H](C(C)C)NC(=O)[C@H](Cc2c[nH]c3ccccc23)NC(=O)[C@H](CC(N)=O)NC(=O)[C@H](CCCNC(=N)N)NC(=O)CNC(=O)[C@H](CO)NC(=O)[C@H](CCCNC(=N)N)NC(=O)[C@H](Cc2ccccc2)NC(=O)CSC[C@@H](C(N)=O)NC1=O [Compound 8] ({CH2CO}-FRSGRNWVRWVC-NH2; thioether N-12)
8,21 nM,CC[C@H](C)[C@@H]1NC(=O)[C@H](Cc2c[nH]c3ccccc23)NC(=O)CSC[C@@H](C(N)=O)NC(=O)[C@H](C(C)C)NC(=O)[C@H](Cc2c[nH]c3ccccc23)NC(=O)[C@H](CCCCN)NC(=O)[C@H](C(C)C)NC(=O)[C@H](Cc2c[nH]c3ccccc23)NC(=O)[C@H](CC(N)=O)NC(=O)[C@H](CCCCN)NC(=O)CNC(=O)[C@H](CO)NC1=O [Compound 16] ({CH2CO}-WISGKNWVKWVC-NH2; thioether N-12)
9,16.7 nM,CC[C@H](C)[C@@H]1NC(=O)[C@H](Cc2ccccc2)NC(=O)CSC[C@@H](C(N)=O)NC(=O)[C@H](C(C)C)NC(=O)[C@H](Cc2c[nH]c3ccccc23)NC(=O)[C@H](Cc2ccc(CN)cc2)NC(=O)[C@H](C(C)C)NC(=O)[C@H](Cc2c[nH]c3ccccc23)NC(=O)[C@H](CC(N)=O)NC(=O)[C@H](CCCNC(=N)N)NC(=O)CNC(=O)[C@H](CO)NC1=O [Compound 47] ({CH2CO}-FISGRNWV[Phe(4-CH2NH2)]WVC-NH2; thioether N-12)
10,16.1 nM,CCCC[C@@H]1NC(=O)[C@H](Cc2c[nH]c3ccccc23)NC(=O)[C@H](CC(=O)O)NC(=O)[C@H](CCCNC(=N)N)NC(=O)CNC(=O)[C@H](CO)NC(=O)[C@H]([C@@H](C)CC)NC(=O)[C@H](Cc2ccc3ccccc3c2)NC(=O)CNC(=O)CSC[C@@H](C(N)=O)NC(=O)[C@H](C(C)C)NC(=O)[C@H](Cc2c[nH]c3ccccc23)NC(=O)[C@H](CCCCN)NC1=O [Compound 75] ({CH2CO}-G[2Nal]ISGRDW[Nle]KWVC-NH2; thioether N-13)
11,16.7 nM,CC[C@H](C)[C@@H]1NC(=O)[C@H](Cc2ccc3ccccc3c2)NC(=O)CSC[C@@H](C(N)=O)NC(=O)[C@H](C(C)C)NC(=O)[C@H](Cc2c[nH]c3ccccc23)NC(=O)[C@H](CCCCN)NC(=O)[C@H](C(C)C)NC(=O)[C@H](Cc2c[nH]c3ccccc23)NC(=O)[C@H](CC(N)=O)NC(=O)[C@H](CCCNC(=N)N)NC(=O)CNC(=O)[C@H](C)NC1=O [Compound 30] ({CH2CO}-[2Nal]IAGRNWVKWVC-NH2; thioether N-12)
12,15.6 nM,CCCC[C@@H]1NC(=O)[C@H](Cc2c[nH]c3ccccc23)NC(=O)[C@H](CC(=O)O)NC(=O)[C@H](CCCCN)NC(=O)CNC(=O)[C@H](CO)NC(=O)[C@H]([C@@H](C)CC)NC(=O)[C@H](Cc2ccc3ccccc3c2)NC(=O)CSC[C@@H](C(N)=O)NC(=O)[C@H](C(C)C)NC(=O)[C@H](Cc2c[nH]c3ccccc23)NC(=O)[C@H](CCCCN)NC1=O [Compound 57] ({CH2CO}-[2Nal]ISGKDW[Nle]KWVC-NH2; thioether N-12)
13,20.7 nM,CCCC[C@@H]1NC(=O)[C@H](Cc2c[nH]c3ccccc23)NC(=O)[C@H](CC(=O)O)NC(=O)[C@H](CCCCNC(N)=O)NC(=O)CNC(=O)[C@H](CO)NC(=O)[C@H]([C@@H](C)CC)NC(=O)[C@H](Cc2ccc3ccccc3c2)NC(=O)CSC[C@@H](C(N)=O)NC(=O)[C@H](C(C)C)NC(=O)[C@H](Cc2c[nH]c3ccccc23)NC(=O)[C@H](CCCCN)NC1=O [Compound 74] ({CH2CO}-[2Nal]ISG[hCit]DW[Nle]KWVC-NH2; thioether N-12)
